Data set [1] has as its system NCI-H292. Put plainly: Cytotoxic effects, MTT assay. The data set is classed as cell-based. The note with it: Homo sapiens, 72 h incubation. Here is the method:
The cells are cultivated by a standard method, as indicated in the […] (ATCC) for the respective cell lines.
At the end of the selected incubation time, the MTT reagent is incubated with the cells for 4 h, followed by lysis of the cells overnight by addition of the detergent. […] The proliferation of cells which were not treated with test substance but were otherwise identically treated was defined as the 100% figure.

Data set [2] concerns the target T1, human kinesin spindle protein KSP/Eg5 (Homo sapiens, UniProt P52732).
T1 construct: The motor domain of the human kinesin spindle protein KSP/Eg5; purchased tebu-bio/Cytoskeleton Inc 027EG01-XL
T1 sequence (P52732 18-359 limits assumed): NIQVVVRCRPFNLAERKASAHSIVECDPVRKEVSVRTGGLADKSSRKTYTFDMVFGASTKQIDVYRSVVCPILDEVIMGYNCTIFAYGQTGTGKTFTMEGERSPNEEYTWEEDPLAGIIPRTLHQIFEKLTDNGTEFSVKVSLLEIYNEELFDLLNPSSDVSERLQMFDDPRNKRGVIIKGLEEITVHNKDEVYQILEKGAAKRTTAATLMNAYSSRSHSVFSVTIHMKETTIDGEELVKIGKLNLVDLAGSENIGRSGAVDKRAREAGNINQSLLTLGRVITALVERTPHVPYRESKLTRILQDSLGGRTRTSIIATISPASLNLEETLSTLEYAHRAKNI
Nature of the data set: Inhibition of the kinesin spindle protein KSP/Eg5 (ATPase, malachite green). Type of data set: biochemical. Conditions: 10 nM KSP motor domain, 500 μM ATP, 2 h RT. An outline of the steps: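 KSP/Eg5 motor domain (10 nM) preincubated 5 min at RT with 50 μg/ml taxol-stabilized bovine or porcine microtubules in 15 mM PIPES pH 6.8, 5 mM MgCl2, 10 mM DTT. IC50 = mean of three experiments.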

The nature of data set [3]: Cell permeability, flux assay using Caco-2 cells. The note with it: human, Caco-2.

For `CC(C)(C)[C@H](c1nc(-c2cc(F)ccc2F)cn1Cc1ccccc1)N(CCCN)C(=O)CSCCC(NC(=O)CCOCCOCCOCCOCCNC(=O)CCN1C(=O)CC(SC[C@H](N)C(=O)O)C1=O)C(=O)O.O=C(O)C(F)(F)F.O=C(O)C(F)(F)F` (mixture of isomers) [Example 140, N-[19-(3(R/S)-[{(2R)-2-Amino-2-carboxyethyl]sulphanyl}-2,5-dioxopyrrolidin-1-yl)-17-oxo-4,7,10,13-tetraoxa-16-azanonadecan-1-oyl]-R/S-{2-[(3-aminopropyl){(1R)-1-[1-benzyl-4-(2,5-difluorophenyl)-1H-imidazol-2-yl]-2,2-dimethylpropyl}amino]-2-oxoethyl}homocysteine/trifluoroacetic acid (1:2)], the IC50 in data set [1] is no less than 500 nM; in data set [2] it was 2.51 nM. Also, the basolateral-to-apical permeability (Papp B→A) at 2 h in data set [3] came to 0.17 ×10⁻⁶ cm/s. Also, the efflux ratio at 2 h in data set [3] is 1.
Consider `CC(C)(C)[C@H](c1nn(-c2cc(F)ccc2F)cc1Cc1ccccc1)N(CCCN)C(=O)CO` [Example 96, N-(3-Aminopropyl)-N-{(1R)-1-[4-benzyl-1-(2,5-difluorophenyl)-1H-pyrazol-3-yl]-2,2-dimethylpropyl}-2-hydroxyacetamide], for which, in data set [1], half-maximal inhibition (IC50) was put at 2.09 nM. This compound returned an IC50 in data set [2] of 7.8 nM. Further, in data set [3], the Papp B→A at 2 h worked out at 28.5 ×10⁻⁶ cm/s and the efflux ratio at 2 h was determined as 16.
On the same counts, the results for `CC(C)(C)[C@H](c1nc(-c2cc(F)ccc2F)cn1Cc1ccccc1)N(CC[C@H](N)C(=O)NCCC(=O)NCCN1C(=O)CC(SC[C@H](N)C(=O)O)C1=O)C(=O)CO.O=C(O)C(F)(F)F` (stereo partly drawn) [Example 130, S-(1-{2-[(N-{(2S)-2-Amino-4-[{(1R)-1-[1-benzyl-4-(2,5-difluorophenyl)-1H-imidazol-2-yl]-2,2-dimethylpropyl}(glycoloyl)amino]butanoyl}-beta-alanyl)amino]ethyl}-2,5-dioxopyrrolidin-3-yl)-L-cysteine/trifluoroacetic acid (1:1)] are 178 nM, 1.66 nM, 1 ×10⁻⁶ cm/s and 6.7.
Take `CC(C)(C)[C@H](c1nn(-c2cc(F)ccc2F)cc1Cc1ccccc1)N(CC[C@H](N)C(=O)NCCNC(=O)CN1C(=O)CC(SC[C@H](N)C(=O)O)C1=O)C(=O)CO.O=C(O)C(F)(F)F` (stereo partly drawn) [Example 131, S-[1-(2-{[2-({(2S)-2-Amino-4-[{(1R)-1-[4-benzyl-1-(2,5-difluorophenyl)-1H-pyrazol-3-yl]-2,2-dimethylpropyl}(glycoloyl)amino]butanoyl}amino)ethyl]amino}-2-oxoethyl)-2,5-dioxopyrrolidin-3-yl]-L-cysteine/trifluoroacetic acid (1:1)]: the IC50 was no less than 500 nM in data set [1] and 1.24 nM in data set [2]. This compound also returned a Papp B→A at 2 h in data set [3] of 0.9 ×10⁻⁶ cm/s. The efflux ratio at 2 h in data set [3] was found to be 10.
On the same counts, the results for `C[C@H](NC(=O)CCNC(=O)[C@@H](N)CCN(C(=O)CO)[C@@H](c1nn(-c2cc(F)ccc2F)cc1Cc1ccccc1)C(C)(C)C)C(=O)N[C@@H](CCCNC(N)=O)C(=O)Nc1ccc(N2C(=O)CC(SC[C@H](N)C(=O)O)C2=O)cc1.O=C(O)C(F)(F)F` (stereo partly drawn) [Example 132, N-{(2S)-2-Amino-4-[{(1R)-1-[4-benzyl-1-(2,5-difluorophenyl)-1H-pyrazol-3-yl]-2,2-dimethylpropyl}(glycoloyl)amino]butanoyl}-beta-alanyl-L-alanyl-N-[4-(3-{[(2R)-2-amino-2-carboxyethyl]sulphanyl}-2,5-dioxopyrrolidin-1-yl)phenyl]-N^5-carbamoyl-L-ornithinamide/trifluoroacetic acid (1:1)] are no less than 500 nM, 1.65 nM, 0.16 ×10⁻⁶ cm/s and 1.
On the same counts, the results for `CC(C)(C)[C@H](c1cc(-c2cc(F)ccc2F)cn1Cc1ccccc1)N(CC[C@H](N)C(=O)NCCC(=O)NCCN1C(=O)CC(SC[C@H](N)C(=O)O)C1=O)C(=O)CO.O=C(O)C(F)(F)F` (stereo partly drawn) [Example 133, S-(1-{2-[(N-{(2S)-2-Amino-4-[{(1R)-1-[1-benzyl-4-(2,5-difluorophenyl)-1H-pyrrol-2-yl]-2,2-dimethylpropyl}(glycoloyl)amino]butanoyl}-beta-alanyl)amino]ethyl}-2,5-dioxopyrrolidin-3-yl)-L-cysteine/trifluoroacetic acid (1:1)] are 155 nM, 4.13 nM, 0.43 ×10⁻⁶ cm/s and 6.
For the compound `CC(C)[C@H](NC(=O)CCCCCN1C(=O)CC(SC[C@H](N)C(=O)O)C1=O)C(=O)N[C@@H](CCCNC(N)=O)C(=O)N[C@@H](CCCCNC(=O)[C@@H](N)CCN(C(=O)CO)[C@@H](c1nn(-c2cc(F)ccc2F)cc1Cc1ccccc1)C(C)(C)C)C(=O)O` (stereo partly drawn) [Example 134, N-[6-(3-{[(2R)-2-Amino-2-carboxyethyl]sulphanyl}-2,5-dioxopyrrolidin-1-yl)hexanoyl]-L-valyl-N^5-carbamoyl-L-ornithyl-N^6-{(2S)-2-amino-4-[{(1R)-1-[4-benzyl-1-(2,5-difluorophenyl)-1H-pyrazol-3-yl]-2,2-dimethylpropyl}(glycoloyl)amino]butanoyl}-L-lysine/trifluoroacetic acid (1:1)], the half-maximal inhibitory concentration (IC50) in data set [1] was no less than 500 nM. This compound registered an IC50 in data set [2] of 4.35 nM. For the same compound, in data set [3], the basolateral-to-apical permeability (Papp B→A) at 2 h amounted to 0.29 ×10⁻⁶ cm/s and the efflux ratio at 2 h was determined as 0.5.
`CC(C)(C)[C@H](c1nn(-c2cc(F)ccc2F)cc1Cc1ccccc1)N(CC[C@H](N)C(=O)NCCNC(=O)CSC[C@H](N)C(=O)O)C(=O)CO.O=C(O)C(F)(F)F` [Example 136, S-(2-{[2-({(2S)-2-Amino-4-[{(1R)-1-[4-benzyl-1-(2,5-difluorophenyl)-1H-pyrazol-3-yl]-2,2-dimethylpropyl}(glycoloyl)amino]butanoyl}amino)ethyl]amino}-2-oxoethyl)-L-cysteine/trifluoroacetic acid (1:1)] yielded a half-inhibitory concentration (IC50) in data set [1] of no less than 500 nM. The IC50 in data set [2] came out at 0.328 nM. Also, in data set [3], the Papp B→A at 2 h was determined as 0.91 ×10⁻⁶ cm/s and the efflux ratio at 2 h stood at 8.5.
As to `CC(C)(C)[C@H](c1nn(-c2cc(F)ccc2F)cc1Cc1ccccc1)N(CC[C@H](N)C(=O)NNC(=O)CCCCCN1C(=O)CC(SC[C@H](N)C(=O)O)C1=O)C(=O)CO.O=C(O)C(F)(F)F` (stereo partly drawn) [Example 137, S-{1-[6-(2-{(2S)-2-Amino-4-[{(1R)-1-[4-benzyl-1-(2,5-difluorophenyl)-1H-pyrazol-3-yl]-2,2-dimethylpropyl}(glycoloyl)amino]butanoyl}hydrazino)-6-oxohexyl]-2,5-dioxopyrrolidin-3-yl}-L-cysteine/trifluoroacetic acid (1:1)], the IC50 in data set [1] is no less than 500 nM; in data set [2], 0.778 nM. Moreover, the Papp B→A at 2 h in data set [3] came out at 1.7 ×10⁻⁶ cm/s. In data set [3], the efflux ratio at 2 h came to 19.
On the same counts, the results for `CC(C)(C)[C@H](c1cc(-c2cc(F)ccc2F)cn1Cc1ccccc1)N(CC[C@H](N)C(=O)NCCN1C(=O)CC(SC[C@H](N)C(=O)O)C1=O)C(=O)CO.O=C(O)C(F)(F)F.O=C(O)C(F)(F)F` (stereo partly drawn) [Example 139, S-{(3R/S)-1-[2-({(2S)-2-amino-4-[{(1R)-1-[1-benzyl-4-(2,5-difluorophenyl)-1H-pyrrol-2-yl]-2,2-dimethylpropyl}(glycoloyl)amino]butanoyl}amino)ethyl]-2,5-dioxopyrrolidin-3-yl}-L-cysteine/trifluoroacetic acid (1:2)] are 134 nM, 1.82 nM, 2.1 ×10⁻⁶ cm/s and 7.7.
In data set [1], `CC(C)(C)[C@H](c1cc(-c2cc(F)ccc2F)cn1Cc1ccccc1)N(CCCN)C(=O)CSCCCCCC(=O)NCCN1C(=O)CC(SC[C@H](N)C(=O)O)C1=O.O=C(O)C(F)(F)F.O=C(O)C(F)(F)F` (stereo partly drawn) [Example 141, S-[(3R/S)-1-(2-{[6-({2-[(3-aminopropyl) {(1R)-1-[1-benzyl-4-(2,5-difluorophenyl)-1H-pyrrol-2-yl]-2,2-dimethylpropyl}amino]-2-oxoethyl}sulphanyl)hexanoyl]amino}ethyl)-2,5-dioxopyrrolidin-3-yl]-L-cysteine/trifluoroacetic acid (1:2)] returned an IC50 of 16.1 nM. In addition, the concentration for half-maximal inhibition (IC50) in data set [2] came out at 0.902 nM. Further, in data set [3], the apparent permeability from basolateral to apical (Papp B→A) at 2 h was found to be 3 ×10⁻⁶ cm/s and the efflux ratio at 2 h worked out at 35.
On the same counts, the results for `CC(C)(C)[C@H](c1cc(-c2cc(F)ccc2F)cn1Cc1ccccc1)N(CC[C@H](N)C(=O)N[C@H]1CC[C@@H](C(=O)NCCN2C(=O)CC(SC[C@H](N)C(=O)O)C2=O)C1)C(=O)CO.O=C(O)C(F)(F)F` (stereo partly drawn) [Example 157, S-{1-[2-({[(1R,3S)-3-({(2S)-2-Amino-4-[{(1R)-1-[1-benzyl-4-(2,5-difluorophenyl)-1H-pyrrol-2-yl]-2,2-dimethylpropyl}(glycoloyl)amino]butanoyl}amino)cyclopentyl]carbonyl}amino)ethyl]-2,5-dioxopyrrolidin-3-yl}-L-cysteine/trifluoroacetic acid (1:1)] are no less than 500 nM, 9.61 nM, 0.77 ×10⁻⁶ cm/s and 7.2.

The values are drawn from patent publication US10022453B2 (BAYER PHARMA AKTIENGESELLSCHAFT, priority 2013, dated 2018).
